Results on 27 compounds are retold here after ChEMBL document CHEMBL5579895, “Discovery of TYRA-300: First Oral Selective FGFR3 Inhibitor for the Treatment of Urothelial Cancers and Achondroplasia” (J Med Chem, 2024).

The nature of series [1]: Inhibition of recombinant BCR/FGFR4 (unknown origin) transduced in mouse BaF3 cells incubated for 48 hrs by Cell Titer Glo assay. It counts as cell-based. Particulars: BaF3, 48 h.
A short description of series [2]: Inhibition of recombinant BCR/FGFR2 (unknown origin) transduced in mouse BaF3 cells incubated for 48 hrs by Cell Titer Glo assay. Particulars: BaF3, 48 h. In kind it is cell-based. For orientation: In ATP-based viability assays light output follows the ATP content of the culture.
Series [3] can be described thus: Inhibition of recombinant FGFR3/BAIAP2L1 (unknown origin) transduced in mouse BaF3 cells incubated for 48 hrs by Cell Titer Glo assay. Particulars: BaF3, 48 h. In kind it is cell-based.
Series [4] is described as follows: Inhibition of recombinant BCR/FGFR1 (unknown origin) transduced in mouse BaF3 cells incubated for 48 hrs by Cell Titer Glo assay. It counts as cell-based. Particulars: BaF3, 48 h.
A short description of series [5]: Stability in human hepatocytes assessed as half life at 1 uM incubated upto 180 mins by LC-MS/MS analysis. In kind it is ADME, cell-based, Hepatocyte.
Series [6] in a line: Stability in human liver microsomes assessed as half life at 1 uM incubated upto 180 mins by LC-MS/MS analysis. It counts as ADME, Microsome.

As for `CCS(=O)(=O)N1CC2(CN(c3ccc(-c4n[nH]c5ccc(O[C@H](C)c6c(Cl)cncc6Cl)cc45)cn3)C2)C1`, the IC50 (commonly the point on the concentration scale where inhibition reaches its midpoint) turned out to be 529 nM in series [1], 290 nM in series [2], 40 nM in series [3] and 390 nM in series [4].

With `C[C@@H](Oc1ccc2[nH]nc(/C=C/c3cnn(CCO)c3)c2c1)c1c(Cl)cncc1Cl` [LY-2874455], the half-maximal inhibitory concentration (IC50) in series [1] stood at 2 nM; in series [2] it was 0.2 nM; in series [3], 0.2 nM; in series [4] it was 0.5 nM.

In the case of `C[C@@H](Oc1cc2c(-c3ccc(N4CC5(C4)CN(S(C)(=O)=O)C5)nc3)n[nH]c2cc1Cl)c1c(Cl)cncc1Cl`, the IC50 is 37 nM in series [1], 35 nM in series [2], 6.2 nM in series [3] and 60 nM in series [4].

Turning to `C[C@@H](Oc1ccc2[nH]nc(-c3ccc(N4CC5(CCCN(S(C)(=O)=O)C5)C4)nc3)c2c1)c1c(Cl)cncc1Cl`, the IC50 came out at 39 nM in series [1], 62 nM in series [2], 6 nM in series [3] and 94 nM in series [4]. For the same compound, the half-life (as a rule, the time needed for the level to fall by half in the phase considered) at 1 µM in series [5] was 40 min.

As to `C[C@@H](Oc1ccc2[nH]nc(-c3ccc(N4CC5(C4)CN(S(C)(=O)=O)C5)nc3)c2c1)c1c(Cl)cccc1Cl`, the figures for the IC50 in series [3] and in series [4] were 30 nM and 405 nM, respectively.

For the compound `C[C@@H](Oc1ccc2[nH]nc(-c3ccc(N4CC5(CCN5S(C)(=O)=O)C4)nc3)c2c1)c1c(Cl)cncc1Cl`, the IC50 in series [1] was determined as 229 nM; in series [2], 131 nM; in series [3], 18 nM; in series [4] it was 290 nM. Further, in series [5], the half-life at 1 µM turned out to be 49 min.

In the case of `CCOC(=O)N1CC2(C1)CN(c1ccc(-c3n[nH]c4ccc(O[C@H](C)c5c(Cl)cncc5Cl)cc34)cn1)C2`, the IC50 in series [1] came out at 418 nM; in series [2], 248 nM; in series [3], 22 nM; in series [4], 434 nM. Further, the half-life at 1 µM in series [5] turned out to be 27 min.

On to `C[C@@H](Oc1ccc2[nH]nc(-c3ccc(N4CC5(C4)CS(=O)(=O)C5)nc3)c2c1)c1c(Cl)cncc1Cl`, for which the IC50 in series [1] turned out to be 300 nM; in series [2] it was 191 nM; in series [3] it was 26 nM; in series [4], 228 nM.

`C[C@@H](Oc1ccc2[nH]nc(-c3cnc(N4CC5(C4)CN(S(C)(=O)=O)C5)cn3)c2c1)c1c(Cl)cncc1Cl`: the IC50 in series [1] is 21 nM; in series [2], 97 nM; in series [3], 16 nM; in series [4], 189 nM. Also, in series [5], the half-life at 1 µM is above 100 min.

`C[C@@H](Oc1ccc2[nH]nc(-c3ccc(N4CC5CC(C4)N5S(C)(=O)=O)nc3)c2c1)c1c(Cl)cncc1Cl`: in series [6], the half-life at 1 µM came to 15 min. For the same compound, the IC50 in series [3] is 23 nM; in series [4], 338 nM.

As for `C[C@H](Oc1ccc2[nH]nc(-c3ccc(N4CC5(C4)CN(S(C)(=O)=O)C5)nc3)c2c1)c1c(Cl)cncc1Cl`, the IC50 in series [3] was determined as 133 nM.

As to `COc1cc2[nH]nc(-c3ccc(N4CC5(C4)CN(S(C)(=O)=O)C5)nc3)c2cc1O[C@H](C)c1c(Cl)cncc1Cl`, the IC50 in series [1] amounted to 4.5 nM; in series [2] it was 6.9 nM; in series [3] it was 0.8 nM; in series [4], 14 nM.

Take `C[C@@H](Oc1ccc2[nH]nc(-c3ccc(N4CCC5(CC4)CCS(=O)(=O)C5)nc3)c2c1)c1c(Cl)cncc1Cl`: the IC50 in series [1] worked out at 577 nM; in series [2], 193 nM; in series [3] it was 14 nM; in series [4], 423 nM. For the same compound, the half-life at 1 µM in series [5] is 88 min.

As for `C[C@@H](Oc1ccc2[nH]nc(-c3ccc(N4CC5(C4)CN(S(C)(=O)=O)C5)nc3)c2c1)c1c(Cl)cnc(F)c1Cl`, the IC50 in series [3] was 16 nM; in series [4], 258 nM.

`Cc1ncc(Cl)c([C@@H](C)Oc2ccc3[nH]nc(-c4ccc(N5CC6(C5)CN(S(C)(=O)=O)C6)nc4)c3c2)c1Cl`: in series [5], the half-life at 1 µM was found to be 64 min. The half-inhibitory concentration (IC50) was 47 nM in series [2], 10 nM in series [3] and 176 nM in series [4].

As for `Cc1cncc(C)c1[C@@H](C)Oc1ccc2[nH]nc(-c3ccc(N4CC5(C4)CN(S(C)(=O)=O)C5)nc3)c2c1`, the IC50 in series [1] was 52 nM; in series [2], 86 nM; in series [3] it was 8.1 nM; in series [4], 135 nM. Besides, the half-life at 1 µM in series [5] was 32 min.

Regarding `C[C@@H](Oc1ccc2[nH]nc(-c3ccc(N4CCN(S(C)(=O)=O)C5(CC5)C4)nc3)c2c1)c1c(Cl)cncc1Cl`, in series [6], the half-life at 1 µM was 4.8 min. Further, the IC50 in series [3] was 12 nM; in series [4], 172 nM.

As for `C[C@@H](Oc1ccc2[nH]nc(-c3ccc(C4CCN(S(C)(=O)=O)CC4)nc3)c2c1)c1c(Cl)cncc1Cl`, in series [6], the half-life at 1 µM was 15 min. For the same compound, the figures for the IC50 in series [3] and in series [4] were 5.3 nM and 99 nM, respectively.

As for `C[C@@H](Oc1ccc2[nH]nc(-c3ccc(Cl)nc3)c2c1)c1c(Cl)cncc1Cl`, the 50% inhibitory concentration (IC50) was 2200 nM in series [1], 451 nM in series [2], 110 nM in series [3] and 1040 nM in series [4].

For the compound `C[C@@H](Oc1ccc2[nH]nc(-c3ccc(N4CC5(CCCS(=O)(=O)C5)C4)nc3)c2c1)c1c(Cl)cncc1Cl`, the IC50 amounted to 17 nM in series [1], 33 nM in series [2], 2.5 nM in series [3] and 61 nM in series [4]. The half-life at 1 µM in series [5] was found to be 85 min.

`C[C@@H](Oc1ccc2[nH]nc(-c3ccc(N4CC5(CN(C(=O)N(C)C)C5)C4)nc3)c2c1)c1c(Cl)cncc1Cl`: the IC50 in series [1] came to 469 nM; in series [2], 202 nM; in series [3], 17 nM; in series [4], 234 nM. Moreover, the half-life at 1 µM in series [5] was found to be 14 min.

For `C[C@H](Oc1ccc2[nH]nc(-c3ccc(N4CC5(C4)CN(S(C)(=O)=O)C5)nc3)c2c1)c1c(Cl)cnnc1Cl`, the values for the IC50 in series [3] and in series [4] were 179 nM and 2000 nM, respectively.

On to `CC(C)N1CC2(CN(c3ccc(-c4n[nH]c5ccc(O[C@H](C)c6c(Cl)cncc6Cl)cc45)cn3)C2)C1`, for which the IC50 was determined as 22 nM in series [1], 35 nM in series [2], 4.1 nM in series [3] and 59 nM in series [4]. Also, the half-life at 1 µM in series [5] was 51 min.

As to `C[C@@H](Oc1ccc2[nH]nc(-c3ccc(N4CCC5(CCCO5)CC4)nc3)c2c1)c1c(Cl)cncc1Cl`, the IC50 was determined as 2030 nM in series [1], 503 nM in series [2], 97 nM in series [3] and 872 nM in series [4].

As to `C[C@@H](Oc1ccc2[nH]nc(-c3ccc(N4CCC5(CCOC5)CC4)nc3)c2c1)c1c(Cl)cncc1Cl`, the IC50 in series [1] stood at 835 nM; in series [2], 360 nM; in series [3], 48 nM; in series [4], 711 nM.

Take `C[C@@H](Oc1cc2c(-c3ccc(N4CC5(C4)CN(S(C)(=O)=O)C5)nc3)n[nH]c2cc1F)c1c(Cl)cncc1Cl`: the IC50 in series [1] came out at 40 nM; in series [2] it was 56 nM; in series [3], 6.3 nM; in series [4] it was 84 nM. In addition, the half-life at 1 µM in series [5] was above 100 min.

For the compound `C[C@@H](Oc1ccc2[nH]nc(-c3ccc(N4CCC5(CC4)CN(C)CC(=O)N5)nc3)c2c1)c1c(Cl)cncc1Cl`, the IC50 in series [1] was 298 nM; in series [2], 154 nM; in series [3] it was 13 nM; in series [4], 208 nM. In addition, the half-life at 1 µM in series [5] is 36 min.
